Measurements published in patent publication US8884013B2, “Polymorphs of Dasatinib, preparation methods and pharmaceutical compositions thereof” (Nan Jing Cavendish Bio-Engineering Technology Co., Ltd., priority 2010, dated 2014).

What was measured:
[1] = Observation test of long-term sample storage; type: physicochemical
[2] = Loss and regain of crystal water (sealed with strong dehydrating agent, then air); type: physicochemical

Cc1nc(Nc2ncc(C(=O)Nc3c(C)cccc3Cl)s2)cc(N2CCN(CCO)CC2)n1 [Polymorph I, N-(2-chloro-6-methylphenyl)-2-[[6-[4-(2-hydroxyethyl)-1-piperazinyl]-2-methyl-4-pyrimidyl]amino]-5-thiazolformamide]
Change of content (in words) [1]: decreased slightly | Change of related substances (in words) [1]: increased slightly | Crystal transformation [1]: not found | Behaviour in a sealed surrounding with strong dehydrating agent ([2]; allochroic silicagel, phosphorus pentoxide etc.): lose crystal water (partly to all) step by step | Behaviour of the polymorph losing part crystal moisture in air environment ([2]; put in air environment): return to the Polymorph I with one crystal water step by step
